Tested on: histamine and its metabolites in the tissue of people with lipedema
Assay: Metabolomic analysis (IM-MS) of subcutaneous adipose tissue biopsies from lipedema patients treated with sodium cromoglycate
Assay type: in vivo, human
Details: for Histamine levels in tissue samples after treatment (in words): three lipedema patients treated for two weeks
Procedure: This experiment study involved patients who were diagnosed with lipedema. The study began with collection of a sample from each subject in the study, and three patients received a treatment regimen consisting of twice daily oral doses of sodium cromoglycate (500 mg) for 15 days, as well as a topical cream containing 4% sodium cromoglycate. The effects of this treatment on the patients' symptoms and mast cell activation were evaluated as part of the study.
Thereafter, metabolomic analysis was performed by mass spectrometry. Specifically, the ion-mobility mass spectrometry (IM-MS) technique combined ion mobility with mass spectrometry, allowing different compounds to be characterized together with a specific m/z ratio. SACI-CIMS was used as ionization technique. Data were acquired through the SANIST platform. Values under the Limit of Quantification (LoQ=1 pg/mg) were considered as 0 pg/mg.
Thereafter, a target histological and metabolomic examination was performed. Specifically, biopsies of subcutaneous adipose tissue were taken from a total of six patients with lipedema and four healthy individuals.

[1] = lipedema tissue of patients treated with sodium cromoglycate (n = 3), 500 mg oral twice daily for 15 days plus 4% topical cream
[2] = lipedema tissue of patients treated with sodium cromoglycate (n = 3), 500 mg oral twice daily for 15 days plus 4% topical cream, values under LoQ (1 pg/mg) given as 0

`O=C(O)c1cc(=O)c2c(OCC(O)COc3cccc4oc(C(=O)O)cc(=O)c34)cccc2o1` [sodium cromoglycate, Sodium cromoglycate] was tested, and the 1-Methylhystamine tissue level [1] was 13.67 ± 10.02 pg/mg, the Histidine tissue level [1] was 20.67 ± 17.00 pg/mg and the Histamine tissue level [2] was 0 pg/mg. For the same compound, the “Imidazole Acetaldehyde tissue level” value [2] was 0 pg/mg, the “Histamine levels in tissue samples after treatment (in words)” value was “effectively reduce histamine levels” and the “Histamine levels in tissue samples after treatment (in words)” value (listed as disodium cromoglycate) was “normal levels of histamine”.

From patent US20240374555A1, “Mast Cell Stabilizer with Sodium Cromoglycate-based Inhibitor for Preventing Lipedema Progression” (MAGI'S LAB SRL, priority 2023, published 2024)
